# Where “and” joins values, the source holds several entries; their conditions need not be identical. Equal entries are not always repeated.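 The compound was tested at five concentrations on cells cultured in 96-well plates, with a 48-hour exposure period. GI50 is the concentration that inhibits growth by half. The concentration for full growth arrest is given as TGI.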
# Columns and labels:
# Experiment in all cases: inhibition of tumour cell growth, NCI panel, 48 h
# 786-0 renal = test system: 786-0 renal
# CAKI-1 renal = test system: CAKI-1 renal
# HCT-116 colon = test system: HCT-116 colon
# NCI-H460 lung = test system: NCI-H460 lung
# OVCAR-3 ovarian = test system: OVCAR-3 ovarian
# OVCAR-4 ovarian = test system: OVCAR-4 ovarian
# RXF 393 renal = test system: RXF 393 renal
# SK-MEL-2 melanoma = test system: SK-MEL-2 melanoma
# SK-MEL-28 melanoma = test system: SK-MEL-28 melanoma
# SN12C renal = test system: SN12C renal
SMILES,GI50 (786-0 renal),TGI (786-0 renal),GI50 (CAKI-1 renal),TGI (CAKI-1 renal),GI50 (HCT-116 colon),TGI (HCT-116 colon),GI50 (NCI-H460 lung),TGI (NCI-H460 lung),GI50 (OVCAR-3 ovarian),TGI (OVCAR-3 ovarian),GI50 (OVCAR-4 ovarian),TGI (OVCAR-4 ovarian),GI50 (RXF 393 renal),TGI (RXF 393 renal),GI50 (SK-MEL-2 melanoma),TGI (SK-MEL-2 melanoma),GI50 (SK-MEL-28 melanoma),TGI (SK-MEL-28 melanoma),GI50 (SN12C renal),TGI (SN12C renal)
C1COCCN1.C1COCCN1.N.N.[Cl-].[Pt+2],> 100 µM,> 100 µM,54.1 µM,> 100 µM,> 100 µM,> 100 µM,> 100 µM,> 100 µM,> 100 µM,> 100 µM,> 100 µM,> 100 µM,> 100 µM,> 100 µM,> 100 µM,> 100 µM,> 100 µM,> 100 µM,> 100 µM,> 100 µM
CN1CCN(Cc2ccc(C(=O)Nc3cncc(C#Cc4cnc(N)c5ccccc45)c3)cc2C(F)(F)F)CC1,1.78 µM,3.25 µM,1.7 µM,3.69 µM,1.36 µM,2.7 µM,1.76 µM,3.39 µM,1.95 µM,3.71 µM,1.18 µM,3.05 µM,1.55 µM,3.01 µM,2.29 µM,5.2 µM,1.75 µM,3.22 µM,1.8 µM,3.47 µM
CC(=O)OC1=C2CC3(C)OC(=O)CC(C)(C)C3=CC=C2C=C(C(C)C)C1=O (centres undefined),,0.388 µM,,3.18 µM,,1.35 µM,,3.31 µM,,2.41 µM,,0.915 µM,,0.347 µM,,1.65 µM,,1.31 µM,,2 µM
O=c1[nH]c2ccccc2cc1C(Cl)=C(Cl)Cl,,> 100 µM,,> 100 µM,,> 100 µM,,> 100 µM,,> 100 µM,,> 100 µM,,> 100 µM,,> 100 µM,,> 100 µM,,> 100 µM
CCCCCCCCCCCCCCCC(=O)NCC(COP(=O)([O-])OCC[N+](C)(C)C)OCC (centres undefined),,5.82 µM,,35.2 µM,,23.9 µM,,7.28 µM,,18.9 µM,,17.7 µM,,5.3 µM,,,,36.6 µM,,25 µM
CC(C)(C)c1cc(O)c(O)c(C(C)(C)C)c1,4.6 µM,16.2 µM,2.79 µM,8.63 µM,1.83 µM,3.41 µM,3 µM,10 µM,1.93 µM,3.38 µM,2.31 µM,5.84 µM,4.4 µM,13.5 µM,3.74 µM,11.4 µM,3 µM,10.7 µM,4.82 µM,21.3 µM
CN(C)/C(=N/C(=S)Nc1ccccc1)SCc1ccccc1,,> 100 µM,,> 100 µM,,,,,,> 100 µM,,> 100 µM,,> 100 µM,,> 100 µM,,> 100 µM,,> 100 µM
COc1cc2c3c(cccc3c1)C(=O)N(CCN1CCCC1)C2=O,2.92 µM,> 100 µM,2.56 µM,> 100 µM,0.753 µM,> 100 µM,2.26 µM,11.3 µM,2.3 µM,6.29 µM,,,1.41 µM,3.54 µM,3.14 µM,6.61 µM,1.84 µM,3.43 µM,2.41 µM,78.5 µM
COc1ccc(-c2nn(-c3cccc(Cl)c3)cc2C2CC(c3ccccc3)=NN2C(C)=O)cc1 (centres undefined),6.87 µM,97.2 µM,6.54 µM,> 100 µM,4.2 µM,> 100 µM,4.17 µM,> 100 µM,5.42 µM,45.1 µM,3.38 µM,29.2 µM,6.49 µM,30.8 µM,4.97 µM,22.6 µM,6.16 µM,> 100 µM,8.35 µM,> 100 µM
C=C1C(O)C2CCC(C)(C)C(=O)C2=C(CC(C)C)C12CC2 (centres undefined),> 100 µM,> 100 µM,31.2 µM,86.6 µM,37.2 µM,> 100 µM,32.8 µM,> 100 µM,34.7 µM,> 100 µM,> 100 µM,> 100 µM,53.1 µM,> 100 µM,> 100 µM,> 100 µM,43.6 µM,> 100 µM,63.8 µM,> 100 µM
CSc1nc(SC)c2c(CN=[N+]=[N-])c(Br)n(Cc3ccccc3)c2n1,,> 100 µM,,> 100 µM,,> 100 µM,,> 100 µM,,> 100 µM,,> 100 µM,,,,> 100 µM,,> 100 µM,,> 100 µM
CCN1CCN(c2nc(NCCCNc3ccnc4cc(Cl)ccc34)c3ccccc3n2)CC1,2.18 µM,5.82 µM,,,2.25 µM,6.53 µM,2.14 µM,5.1 µM,2.9 µM,10.3 µM,2.12 µM,9.57 µM,1.51 µM,3.29 µM,2.14 µM,4.88 µM,1.91 µM,3.9 µM,2.6 µM,11.5 µM
COc1cccc(/C=C/C(=O)c2cc3c(N)c(C(=O)Nc4ccccc4C)sc3nc2C)c1,0.912 µM,1.93 µM,1.66 µM,5.75 µM,0.822 µM,1.5 µM,1.1 µM,2.53 µM,1.13 µM,2.44 µM,2.38 µM,11.2 µM,0.768 µM,1.53 µM,1.7 µM,8.18 µM,,,0.953 µM,2.13 µM
N/C(CC(=O)Nc1cc(C(F)(F)F)ccc1Cl)=N\O,,> 100 µM,,> 100 µM,,> 100 µM,,> 100 µM,,> 100 µM,,> 100 µM,,> 100 µM,,> 100 µM,,> 100 µM,,> 100 µM
C=C1C(=O)O[C@H]2[C@H]1CC/C(CNC(=O)c1c[nH]c3ccc(F)cc13)=C\CC[C@@]1(C)O[C@@H]21,1.33 µM,2.85 µM,,,0.632 µM,1.98 µM,3.43 µM,14.8 µM,0.486 µM,1.77 µM,3.17 µM,15.2 µM,0.522 µM,1.75 µM,1.42 µM,3.09 µM,1.33 µM,3.16 µM,1.98 µM,5.42 µM
CCc1c2c(nc3cc4c(cc13)OCO4)-c1cc3c(c(=O)n1C2)COC(=O)[C@]3(O)CC,,> 100 µM,< 0.001 µM,,1.31 µM,> 100 µM,< 0.001 µM,1.09 µM and 0.617 µM,0.476 µM and 1.87 µM,> 100 µM,0.323 µM and 1.27 µM,> 100 µM,,0.117 µM and 0.478 µM,,,0.764 µM and 1.14 µM,> 100 µM,,> 100 µM
C=CCSC[C@H](NC(=O)COc1ccccc1)C(=O)NC(C(=O)OCc1ccc([N+](=O)[O-])cc1)=C(C)C,,> 100 µM,,,,> 100 µM,,> 100 µM,,> 100 µM,,> 100 µM,,> 100 µM,,> 100 µM,,> 100 µM,,> 100 µM
O=C(c1cccs1)c1c(C(F)(F)F)n([O-])c2ccccc2[n+]1=O,0.521 µM,1.45 µM,1 µM,2.36 µM,0.41 µM,1.07 µM,0.234 µM,0.597 µM,0.744 µM,1.67 µM,0.941 µM,3.09 µM,,,2.21 µM,10.5 µM,5.59 µM,14.5 µM,0.737 µM,1.67 µM
CSC1=NC=CCN1C,,> 100 µM,,> 100 µM,,> 100 µM,,> 100 µM,,> 100 µM,,> 100 µM,,,,> 100 µM,,> 100 µM,,> 100 µM
CCCCCCCCCCCCCC(=S)NCCCC[C@H](NC(=O)OCc1ccccc1)C(=O)Nc1ccccc1,5.43 µM,> 100 µM,,,3.77 µM,> 100 µM,4.02 µM,> 100 µM,3.52 µM,> 100 µM,3.9 µM,> 100 µM,5.91 µM,> 100 µM,3.48 µM,26.9 µM,7.99 µM,> 100 µM,3.81 µM,> 100 µM
COc1cc2c(c3c1C=CCO3)C(=O)c1ccccc1C2=O,,> 100 µM,,,,> 100 µM,,> 100 µM,,> 100 µM,,,,> 100 µM,,> 100 µM,,> 100 µM,,> 100 µM
COc1ccc2cc1Oc1ccc(cc1)C[C@H]1c3cc(c(OC)cc3CCN1C)Oc1c(OC)c(OC)cc3c1[C@H](C2)N(C)CC3,5.1 µM,12.4 µM and 18 µM and > 100 µM,,,3.8 µM,11.1 µM and 14.9 µM and > 100 µM,,14.5 µM,11.8 µM,15.7 µM and 28.7 µM,12.4 µM,11.1 µM and 28.5 µM,1.97 µM,12.1 µM and 6.61 µM,,,,,,
O=C(/C=C/c1ccc(Cl)cc1)c1ccc(Cl)cc1Cl,7.05 µM,15.8 µM,8.22 µM,15.7 µM,4.74 µM,33.5 µM,10.4 µM,24.8 µM,9.19 µM,18.4 µM,6.14 µM,14 µM,,,9.55 µM,18.9 µM,,,9.96 µM,20.9 µM
CC(=O)c1ccc(Nc2cc(-c3ccccc3)nc3c(O)cccc23)cc1,8.8 µM,83.4 µM,41.3 µM,> 100 µM,5.79 µM,90.2 µM,,,> 100 µM,> 100 µM,18.2 µM,64.7 µM,17.4 µM,60.3 µM,13.2 µM,40.4 µM,23.1 µM,88.8 µM,24.7 µM,58.2 µM
Nc1n[nH]c2ccc([C@@H]3Nc4ccc5[nH]ncc5c4[C@H]4[C@H]5CCC(C5)[C@H]43)cc12,0.757 µM,33.8 µM,0.436 µM,24.7 µM,0.404 µM,> 100 µM,0.358 µM,10.9 µM,0.23 µM,0.64 µM,2.05 µM,> 100 µM,,,1.24 µM,40.8 µM,0.91 µM,> 76.3 µM,0.618 µM,> 89.7 µM
C[C@@H]1CC[C@H]2C(COCC3=C(C(F)(F)F)O[C@@H]4O[C@@]5(C)CC[C@H]6[C@H](C)CC[C@@H]3[C@@]46OO5)=C(C(F)(F)F)O[C@@H]3O[C@@]4(C)CC[C@@H]1[C@]32OO4,0.182 µM,> 100 µM,0.205 µM,> 100 µM,< 0.01 µM,> 100 µM,< 0.01 µM,> 100 µM,0.0365 µM,> 100 µM,0.0251 µM,> 100 µM,,,,,,> 100 µM,0.0439 µM,> 100 µM
COC(=O)C1OC(O[C@H]2CCC3(C)C(CCC4(C)C3CC=C3C5CC(C)(C)CCC5(C(=O)O)CC[C@]34C)C2(C)C)C(O)C(OC2OC(CO)C(O)C(O)C2O)C1O (some centres undefined),6.36 µM,11.6 µM,12.2 µM,> 33.3 µM,6.39 µM,11.5 µM,11.5 µM,> 33.3 µM,13.9 µM,> 33.3 µM,,,11.3 µM,> 33.3 µM,11.9 µM,> 33.3 µM,10.2 µM,24.1 µM,6.34 µM,11.4 µM
O=C1/C(=C/c2ccc(F)cc2)CCOc2ccc([N+](=O)[O-])cc21,1.8 µM,3.5 µM,2.08 µM,4.73 µM,1.5 µM,3.01 µM,17.4 µM,34.9 µM,2.33 µM,5.61 µM,16.7 µM,36.5 µM,1.71 µM,3.7 µM,3.17 µM,11.6 µM,,,6.97 µM,21 µM
CCOC(=O)C1(CC)CCCCC(=O)N1 (centres undefined),,> 100 µM,,> 100 µM,,,,> 100 µM,,> 100 µM,,> 100 µM,,> 100 µM,,,,> 100 µM,,> 100 µM
COC(=O)C(c1[nH]nc2ccccc12)C(C(=O)OC)c1[nH]nc2ccccc12 (centres undefined),,> 100 µM,,,,> 100 µM,,> 100 µM,,> 100 µM,,53.4 µM,,66.3 µM,,,,> 100 µM,,> 100 µM

# From PubChem BioAssay (NCI)
